Measurements reported in patent US11078496B2, “System for F-box hormone receptor regulated protein expression in mammalian cells” (ICAHN SCHOOL OF MEDICINE AT MOUNT SINAI, priority 2016, dated 2021).

Tested on: J-p53 (OsJAZ^33-p53)
Experiment: Coronatine-dependent degradation of J-p53 in H9 hESCs (western blot quantification)
Assay type: cell-based, human
Details: 50 μM coronatine, 1 day
Description: FIGS. 11A-11G illustrate a coronatine-induced degradation rescue system. […] GFP fluorescence was measured by flow cytometry and % degradation was calculated. The corresponding components and biological replicate number (n) are indicated. The bar for pJAZ 6-Os23 is in grey color, to indicate reduced GFP fluorescence in non-treated cells (FIG. 10F). […] GFP fluorescence was measured using flow cytometry. The experiment was repeated three times, and representative results are presented. In FIGS. 11C-11D, H9 hESCs were infected with pJAZ NLS-GFP-OsJAZ^33 (“GFP-J”) or pJAZ OsJAZ^33-p^53 (“J-p53”) that harbors an shRNA targeting the 3′-UTR of p53 and an OsJAZ^33degron-fused p53 coding sequence lacking UTRs. […] P-values were calculated using unpaired Student's t-test. […] After 24 hours, microscopic bright-field (“BF”) and fluorescence images were taken (FIG. 11E, scale bars, 100 μm) and cells were subjected to flow analysis (FIG. 11F, contour plots; FIG. 11G, quantification, error bars represent standard deviation.). […]
Cells were lysed in RIPA-B buffer (20 mM Na2HPO4 pH 7.4, 150 mM NaCl and 1% Triton X-100) supplemented with Protease Inhibitor Cocktail (Roche) for 30 minutes on ice with occasional vortexing, followed by 30 minutes centrifugation at 13,000 relative centrifugal force at 4° C. […] Luminescence was detected with X-ray films, which were scanned, or using the Bio-Rad ChemiDoc MP System. […]

With `CC[C@H]1C=C(C(=O)N[C@@]2(C(=O)O)C[C@@H]2CC)[C@H]2CCC(=O)[C@H]2C1` [coronatine, Coronatine] the “coronatine-dependent degradation of J-p53” value was 90%.
